From PMC9611471 (Pharmaceutics, 2022)
One block for each compound: values may come before it.

How the values were obtained:
[1] = biological target: T1, SK1 (Homo sapiens, UniProt Q9NYA1); test: SK1 activity assay (Adapta screening system)
[2] = In vitro metabolic stability, dog liver microsomes; format: in vitro ADME; settings: pooled liver microsomes, NADPH, 37 °C, 0 and 30 min
[3] = tested on: A549 and H1299 cells; test: Cell proliferation / viability assay (EZ-CYTOX)
[4] = biological target: T2, SK2 (Homo sapiens, UniProt Q9NRA0); test: SK2 activity assay (Adapta screening system); settings: read-out: SK2 inhibitory efficacy
T2 sequence (Q9NRA0 1-654): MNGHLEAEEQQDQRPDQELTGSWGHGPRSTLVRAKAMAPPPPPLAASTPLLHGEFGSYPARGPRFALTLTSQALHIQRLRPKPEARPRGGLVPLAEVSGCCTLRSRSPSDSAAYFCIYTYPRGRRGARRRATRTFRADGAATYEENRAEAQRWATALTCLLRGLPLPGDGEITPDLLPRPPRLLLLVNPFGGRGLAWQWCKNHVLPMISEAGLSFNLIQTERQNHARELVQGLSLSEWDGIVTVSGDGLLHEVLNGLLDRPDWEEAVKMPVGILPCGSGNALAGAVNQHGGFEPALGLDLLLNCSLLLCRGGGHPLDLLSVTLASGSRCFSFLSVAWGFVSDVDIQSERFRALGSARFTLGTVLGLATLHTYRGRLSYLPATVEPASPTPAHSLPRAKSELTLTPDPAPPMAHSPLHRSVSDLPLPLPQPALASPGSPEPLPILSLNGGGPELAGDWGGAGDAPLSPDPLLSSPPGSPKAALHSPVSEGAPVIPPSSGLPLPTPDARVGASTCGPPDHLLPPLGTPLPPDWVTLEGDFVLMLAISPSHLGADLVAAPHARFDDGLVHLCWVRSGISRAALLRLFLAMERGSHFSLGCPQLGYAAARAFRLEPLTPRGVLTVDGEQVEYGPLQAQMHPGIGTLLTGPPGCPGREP

[5] = tested on: A549 cells; test: Annexin V-FITC apoptosis analysis; format: cell-based, human; settings: 24 h
Experimental: A549 cells (1 × 10^5 cells) were seeded in into a 12-well plate. […] After harvesting the cells, the binding buffer was added and then incubated with annexin-V-FITC and PI at room temperature for 15 min. The stained cells were analyzed with MACS Quant Analyzer 10 Flow Cytometer (Miltenyi Biotec, Bergisch Gladbach, Germany) within 1 h.

[6] = tested on: A549 cells; test: SK1 and SK2 protein (Western blotting) and mRNA (qRT-PCR) levels; format: cell-based, human; settings: 5 and 10 μM, 24 h
Experimental: (§1) Western blotting measured changes in apoptosis-related proteins (PARP, BAX, BCL-2, Caspase-3). A549 cells (1 × 10^6 cells per well in 6-well plates) were incubated for 24 h. Cells were treated with concentrations of the compounds and incubated for 24 h. Then, cells were dissolved on ice for two hours with a lysis buffer containing a mixture of protease and phosphatase inhibitors. The lysate was centrifuged at 12,000× g for 15 min at 4 °C, and the supernatant was collected. Protein concentrations were measured using a bicinchoninic acid protein assay kit. Total protein was separated by 8–10% sodium dodecyl sulfate–polyacrylamide gel electrophoresis (SDS-PAGE) and transferred onto polyvinylidene fluoride (PVDF) membranes. After being blocked with 5% skim milk, membranes were probed overnight at 4 °C with primary antibodies against SK1, SK2, PARP, BAX, Bcl-2, Caspase-3, and β-actin. Then, the membranes were incubated with subsequent secondary antibodies at room temperature. Then, the protein expressions were measured by Amersham Imager 680 (GE Healthcare, Leiden, WZ, The Netherlands).
RNAs were isolated using the Trizol/chloroform reagent (Invitrogen, Waltham, MA, USA). […] For quantitative analysis of various genes, qRT-PCR was performed using the Bio-Rad CFX384 Touch Real-time PCR detection system (Bio-Rad, Hercules, CA, USA) with SYBR Premix Ex Taq (Takara Bio, Shiga, Japan) for 40 cycles.

[7] = tested on: A549 cells; test: Cytotoxicity after SK1/SK2 siRNA transfection; format: cell-based, human; settings: A549 cells transfected with siSK1, siSK2; 24 h
Experimental: Control small interfering RNA (siControl) was obtained from Bioneer (Daejeon, Korea), while SK1 (sc-44114) and SK2 (sc-39225) siRNA (siSK1 and siSK2) were purchased from Santa Cruz Biotechnology (Dallas, TX, USA). Cells were transfected using Lipofectamine RNAiMAX Reagent (Invitrogen, Carlsbad, CA, USA) according to the manufacturer’s instructions. Transfection efficiency was monitored by Western blot. After 24 h of infection, cytotoxicity was measured using infected cells.

[8] = In vitro metabolic stability, human liver microsomes; settings: pooled liver microsomes 0.5 mg/mL, NADPH, 37 °C, 0 and 30 min
[9] = tested on: A549 cells; test: Levels of sphingosine, ceramide and S1P (ELISA); format: cell-based, human; settings: 5 and 10 μM
Experimental: After seeding 1 × 10^6 cells/well into a 6-well plate and incubating for 24 h, the synthetic compounds were treated by concentration. Then, cells were collected and freezing and thawing were repeated three to five times, and centrifuged supernatant was used for testing. The levels of sphingosine, ceramide, and S1P were measured according to the proposed manual using each ELISA kit (Mybiosource, Inc., San Diego, CA, USA).

[10] = In vitro metabolic stability, rat liver microsomes; format: in vitro ADME; settings: pooled liver microsomes, NADPH, 37 °C, 0 and 30 min
[11] = tested on: A549 cells; test: Western blotting of apoptosis-related proteins; format: cell-based, human; settings: 5 and 10 μM, 24 h
Experimental: as §1

[12] = tested on: A549 cells; test: Colony formation assay; format: cell-based, human; settings: 5 and 10 μM
Experimental: A549 cells (1 × 10^3 cells/well) were seeded into six-well plates and then each compound was treated at 5 and 10 μM for 12 h. The medium was changed every two days, and the cells were cultured in a fresh medium for 10 days. The obtained colonies were fixed with 25% glutaraldehyde for 20 min and then stained with 0.1% crystal violet for 15 min.

[13] = tested on: A549 cells; test: Mitochondrial membrane potential measurement (JC-10); format: cell-based, human; settings: 10 μM, 24 h
Experimental: To access the mechanism of cell death, Mitochondrial Membrane Potential (MMP) was performed using JC-10 cationic dye. […] Cells were collected, and 20 μM JC-10 dye prepared in HBSS solution (0.14 M NaCl, 0.005 M KCl, 0.001 M CaCl2, 0.005 M MgSO4-7H2O, 0.0004 M MgSO4-6H2O, 0.0003 M Na2HPO4-2H2O, 0.0004 M KH2PO4, 0.006 M D-glucose, 0.004 M NaHCO3, 0.002 M HEPES, and 0.02% Pluronic® F-127) was added to the cell for 30 min and mixed. The samples were protected from light and measured by using the MACS Quant Analyzer 10 Flow cytometer.

[14] = In vitro metabolic stability, mouse liver microsomes; format: in vitro ADME; settings: pooled liver microsomes, NADPH, 37 °C, 0 and 30 min
[15] = biological target: T1, SK1; parameters: purchased Thermo Fisher Scientific; method as in PMID 32526899; settings: read-out: SK1 inhibitory effect (IC50); cited from earlier work
[16] = biological target: T1, SK1; parameters: purchased Thermo Fisher Scientific; method as in PMID 32526899; settings: cited from earlier work
[17] = previous studies; cited from earlier work

T1 sequence (Q9NYA1 whole entry): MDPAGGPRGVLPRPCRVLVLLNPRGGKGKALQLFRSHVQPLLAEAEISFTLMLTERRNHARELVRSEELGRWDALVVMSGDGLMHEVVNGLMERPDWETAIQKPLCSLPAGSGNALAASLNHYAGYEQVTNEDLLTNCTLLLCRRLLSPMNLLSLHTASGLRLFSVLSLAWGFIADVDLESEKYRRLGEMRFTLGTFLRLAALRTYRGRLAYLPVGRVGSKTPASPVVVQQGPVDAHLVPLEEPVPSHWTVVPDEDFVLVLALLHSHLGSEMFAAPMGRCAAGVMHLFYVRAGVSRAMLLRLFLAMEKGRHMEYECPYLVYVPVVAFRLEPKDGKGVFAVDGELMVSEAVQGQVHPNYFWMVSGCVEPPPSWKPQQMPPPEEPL

inhibition at 10 µM ([1]; read-out: SK1 inhibitory efficacy): 39% | MS DLM [2]: 18.6 | inhibition at 10 µM [4]: 44% | MS HLM [8]: 18.1 | MS RLM [10]: 29.1 | MS MLM [14]: 24.6
SMILES: Cc1cc(CN(Cc2cc(C)cc(CS(=O)(=O)c3ccccc3)c2)c2ccc(CCN3CCC(O)CC3)cc2)cc(CS(=O)(=O)c2ccccc2)c1 [Compound 2, 1-(4-(Bis(3-methyl-5-((phenylsulfonyl)methyl)benzyl)amino)phenethyl)piperidin-4-ol]
selectivity for SK1 ([1]; SK1 vs SK2, compared to PF-543): lower selectivity for SK1 compared to PF-543 | cytotoxic effects compared with FTY720 ([3]; 20 and 40 μM, A549 and H1299 cells): cytotoxic effects similar to those of FTY720 | IC50 ([3]; Homo sapiens, 24 h, read-out: IC50 (cytotoxic effect)): 7.07 µM | apoptotic effect (annexin-V) ([5]; 5 μM): significant effect | apoptotic effect (annexin-V) ([5]; 10 μM): significantly higher apoptotic effect compared to PF-543 | expression of proteins and mRNAs of SK1 and SK2 [6]: did not affect | dependence of cytotoxic efficacy on SK1/SK2 (siRNA knockdown) [7]: more dependent on SK1, although SK2 is also partially involved | S1P levels [9]: reduced | ceramide levels [9]: increased | sphingosine levels [9]: sphingosine expression at a level similar to that of PF-543 | levels of PARP, Caspase-3 and cleaved PARP [11]: levels of PARP and Caspase-3 were decreased and cleavage of PARP was increased | colony formation [12]: reduce colony formation in a concentration-dependent manner | change in mitochondrial membrane potential (MMP), JC-10 [13]: significantly increased compared to that after treatment with PF-543

SMILES: Cc1cc(CN(Cc2cc(C)cc(CS(=O)(=O)c3ccccc3)c2)c2ccc(CCO)cc2)cc(CS(=O)(=O)c2ccccc2)c1 [Compound 7]
IC50 [15]: 0.14 µM | binding affinity for SK1 (Ka) [16]: 3.9e+07 M⁻¹

MS DLM [2]: 7.3 | MS RLM [10]: 7.8 | MS MLM [14]: 9.4
SMILES: Cc1cc(CS(=O)(=O)c2ccccc2)cc(OCc2ccc(CN3CCC[C@@H]3CO)cc2)c1 [PF-543, reference compound]
metabolic stability (MS) [17]: poor
